Data reported in patent publication US12691101B2, “Compound and method for preventing or treating of respiratory diseases comprising the same as an active ingredient” (YONSEI UNIVERSITY, UNIVERSITY - INDUSTRY FOUNDATION (UIF), priority 2019, dated 2026).

Molecular target: T1, hERG (Kv11.1) potassium channel (Homo sapiens, UniProt Q12809)
T1 construct: expressed in transfected cells
Test: hERG potassium channel activity, thallium flux in HEK293T cells
Format: cell-based
Method: (A) The inhibition of mouse pendrin (mPDS)-mediated Cl^−/I^− exchange activity by F56 was measured in CHO-K1 cells (mean±S.E., n=5). The indicated concentration of F56 was pretreated for 10 minutes. (B) Summary of dose-response for inhibition of the human pendrin (hPDS)-mediated (closed circle, FIG. (a), C) and mPDS-mediated (open circle) Cl^−/I^− exchange activity. (C-F) Representative traces of intracellular pH in CHO-K1 cells expressing SLC26A3, SLC26A6, SLC26A7 and SLC26A9 were shown. The application of Cl^− free solution induced intracellular alkalization by Cl^−/HCO3^− exchange. The indicated concentration of F56 was pretreated for 10 minutes. (G) the effect of F56 (100 μM) on the CFTR chloride channel activity was measured in FRT cells expressing human CFTR. […] (H) The effect of F56 (100 μM) on the AN01 chloride channel activity was measured in FRT cells expressing human AN01. […] (I) The effect of F56 on the hERG (Kv11.1) potassium channel activity was measured in HEK293T cells expressing human Kv11.1 (mean±S.E., n=4). […] (J) The effect of F56 on the 5-HT2A channel activity was measured in FRT cells expressing human 5-HT2A (mean±S.E., n=4). […]
(A) The effect of F10 (30 μM) on the CFTR channel was measured in FRT cells expressing human CFTR and mutant YFP. […] (B) The effect of F10 (30 μM) on the AN01 channel activity was measured in FRT cells expressing human and mutant YFP. […]

T1 sequence (Q12809 whole entry): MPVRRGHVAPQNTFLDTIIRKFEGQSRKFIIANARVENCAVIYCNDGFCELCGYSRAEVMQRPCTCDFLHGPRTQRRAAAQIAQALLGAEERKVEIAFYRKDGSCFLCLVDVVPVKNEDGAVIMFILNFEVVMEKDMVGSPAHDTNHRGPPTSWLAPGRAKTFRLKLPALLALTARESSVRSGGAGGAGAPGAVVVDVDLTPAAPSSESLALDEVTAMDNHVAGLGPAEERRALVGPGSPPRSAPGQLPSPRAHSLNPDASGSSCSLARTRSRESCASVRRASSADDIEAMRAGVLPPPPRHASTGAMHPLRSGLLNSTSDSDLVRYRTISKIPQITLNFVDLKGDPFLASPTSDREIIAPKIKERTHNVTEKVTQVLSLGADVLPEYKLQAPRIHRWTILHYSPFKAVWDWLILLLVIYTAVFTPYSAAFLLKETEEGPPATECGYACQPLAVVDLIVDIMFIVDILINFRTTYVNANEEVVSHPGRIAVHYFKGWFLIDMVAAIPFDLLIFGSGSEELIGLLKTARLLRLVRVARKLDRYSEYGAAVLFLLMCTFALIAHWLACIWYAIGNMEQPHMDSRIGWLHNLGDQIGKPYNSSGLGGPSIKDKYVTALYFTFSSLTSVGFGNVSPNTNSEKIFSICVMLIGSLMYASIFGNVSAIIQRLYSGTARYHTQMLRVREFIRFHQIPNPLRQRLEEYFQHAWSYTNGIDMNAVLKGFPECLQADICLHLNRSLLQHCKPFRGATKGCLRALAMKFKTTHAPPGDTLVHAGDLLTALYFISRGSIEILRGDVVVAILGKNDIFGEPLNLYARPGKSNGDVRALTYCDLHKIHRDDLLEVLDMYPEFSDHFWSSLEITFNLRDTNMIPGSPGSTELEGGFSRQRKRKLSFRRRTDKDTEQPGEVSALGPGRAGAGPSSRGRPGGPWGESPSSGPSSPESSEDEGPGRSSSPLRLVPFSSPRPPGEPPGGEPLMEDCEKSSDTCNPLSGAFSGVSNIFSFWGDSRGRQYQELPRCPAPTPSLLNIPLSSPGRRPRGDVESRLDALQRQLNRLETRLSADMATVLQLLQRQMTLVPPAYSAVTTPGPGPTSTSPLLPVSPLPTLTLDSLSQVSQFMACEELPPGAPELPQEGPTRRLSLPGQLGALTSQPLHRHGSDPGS

| SMILES | effect on hERG channel activity (pretreated 10 minutes) | effect on hERG channel activity (30 μM) |
| --- | --- | --- |
| CC(C)(C)c1ccc(C2=NC(=Cc3cccs3)C(=O)O2)cc1 [F56, 2-(4-(tert-butyl)phenyl)-4-(thiophen-2-ylmethylene)oxazol-5(4H)-one] | not affected | – |
| CC(C)(C)c1ccc(C2=NC(=Cc3ccc[nH]3)C(=O)O2)cc1 [F10, 4-((1H-pyrrol-2-yl)methylene)-2-(4-(tert-butyl)phenyl)oxazol-5 (4H)-one] | – | did not show any effect |
